According to patent US20130072899A1, “Pharmaceutical Formulations for Iontophoretic Delivery of Gallium” (Nitric BloTherapeutics, Inc., priority 2008, published 2013):
Read-outs that look alike come from different tables or passages of the source.

How the values were obtained:
[1] = Effect of speciation and ITP on gallium deposition within full thickness human skin; format: in vitro ADME
Method: An infinite dose skin deposition study was performed using full thickness human skin. Small Franz cells were constructed as previously described and the mass of skin section recorded. The Franz cells were set up with a receiver fluid of 0.05 M citric acid buffer (pH 5.0) and allowed to equilibrate for one hour. Donor solutions were prepared and 0.5 mL of each added to the appropriate Franz cell donor compartment. Each cell was subjected to either 60 min of ITP or an equivalent period of passive permeation. The cells were sacrificed after cither 60 min (directly after ITP, n=8) or after 25 h (24 h of permeation, n=8). […] The skin samples were removed and reweighed. […] The skin samples were then finely sliced using scissors, chilled and homogenised for five minutes using a T10 Ultra-Turax homogeniser (IKA werks, Staufen, Germany) using 30 second pulses. The scalpel blade, scissors, forceps and homogeniser blades were washed into the homogenate using PDCA mobile phase (five times concentrate) to minimise drug loss from the method. The skin-PDCA concentrate homogenate was allowed to mix for a further 24 h before being filtered using 0.45 μm, 30 mm cellulose acetate syringe filters (Orange Scientific, Braine l'Alleud, Belgium).

[2] = Gallium permeated through human cadaver skin, receptor analysis; format: in vitro ADME; conditions: any of the conditions tested
Method: Anodal and cathodal iontophoresis (0.3 mA/cm^2 for 15 min) were carried out using full thickness human cadaver skin in Franz diffusion cells. Ga nitrate solutions (0.15% in 0.05M citrate buffer, or a saturated solution of 16.6% in 0.1M/1M citrate buffer) at different pH conditions (2 to 8) were evaluated.

[3] = for specific binding affinity of human full thickness skin for gallium (mean): mean of samples A-E, nitrate hydrate
Method: Ten minutes of 400 μA iontophoresis was applied to all of the cells and 0.5 mL samples were removed after 0, 24, 28, 42, 65 and 70 h and replaced with receiver fluid. […] Samples of 0.5 mL were removed for LC ion-exchange assay after 0, 24, 28, 42, 52 and 70 h and replaced with receiver fluid. […] The skin samples were then finely sliced using scissors, chilled and homogenised for five minutes using a T10 Ultra-Turax homogeniser (IKA works, Staufen, Germany) using 30 second pulses. The scalpel, scissors, forceps and homogeniser blades were washed through using 10 mL of PDCA mobile phase concentrate as the extractant. […] The skin-PDCA concentrate homogenate was allowed to mix for a further 24 h before being filtered using 0.45 μm, 30 mm cellulose acetate syringe filters (Orange Scientific, Braine l'Alleud, Belgium).

[4] = Sample D, Ga delivered 0.395 mg
[5] = Sample E, Ga delivered 0.1975 mg

## O=[N+]([O-])[O-].O=[N+]([O-])[O-].O=[N+]([O-])[O-].[Ga+3] [gallium nitrate, Gallium (III) nitrate hydrate]
[1]; Anodal, 60 min ITP then 24 h
  ITP Ga skin deposition 24 h: 1.888±1.159 mg/cm^2
[1]; Anodal, 60 min of 615 μA/cm^2 ITP
  ITP Ga skin deposition 60 min: 1.203±0.248 mg/cm^2
[1]; passive, 60 min
  60 min passive skin deposition: 0.288±0.258 mg/cm^2
[2]
  Ga in the receptor: not detected
[3]; Sample A, Ga delivered 2.4 mg
  % Ga recovery: 97.1%
  Binding: 0.138 mg/g
  Ga bound to skin: 0.07 mg
  Ga recovered: 2.33 mg
[3]; Sample B, Ga delivered 1.6 mg
  % Ga recovery: 92.5%
  Binding: 0.178 mg/g
  Ga bound to skin: 0.12 mg
  Ga recovered: 1.48 mg
[3]; Sample C, Ga delivered 0.79 mg
  % Ga recovery: 87.3%
  Binding: 0.193 mg/g
  Ga bound to skin: 0.1 mg
  Ga recovered: 0.69 mg
[3]; [4]
  % Ga recovery: 73.4%
  Binding: 0.197 mg/g
  Ga bound to skin: 0.105 mg
  Ga recovered: 0.29 mg
[3]; [5]
  % Ga recovery: 60.8%
  Binding: 0.151 mg/g
  Ga bound to skin: 0.0775 mg
  Ga recovered: 0.12 mg
[3]; listed as Ga
  specific binding affinity of human full thickness skin for gallium (mean): 0.171 mg/g
[3]
  specific binding affinity of human full thickness skin for gallium (mean): 0.17 ± 0.03 mg/g
